In patent US20240317780A1, “RADIOPHARMACEUTICAL SOMATOSTATIN RECEPTOR LIGANDS AND PRECURSORS THEREOF” (Technische Universität München, priority 2021, published 2024):
Like-named read-outs stand apart in the source and are kept apart here. Where a SMILES comes first, the peptide text is derived from it. Bridges are numbered along the chain shown (N, C = ends). [ ]: non-standard residue; d: D form. The star is where a group is joined. ξ: configuration not given here. X1 = CC(C)(C)[Si](F)(c1ccc(C[N+](C)(C)CC(=O)*)cc1)C(C)(C)C; DO3AM = NC(=O)CN1CCN(CC(N)=O)CCN(CC(=O)*)CCN(CC(N)=O)CC1; ξW = NC(Cc1c[nH]c2ccccc12)C(=O)O; dOrn = NCCC[C@@H](N)C(=O)O; ξF = NC(Cc1ccccc1)C(=O)O; ξT = CC(O)C(N)C(=O)O; ξDap = NCC(N)C(=O)O; ξC = NC(CS)C(=O)O

Columns and labels:
SST2 = molecular target: T1, SST2 (Homo sapiens, UniProt P30874); experiment: Determination of IC50: competitive binding against [125I]TOC on SST2-transfected CHO cells; details: [125I]TOC reference radioligand, 60 min room temperature
T1 construct: expressed in transfected cells; host or cells: CHO (Chinese hamster ovary) cells
Method: The SST2-transfected CHO cells were cultivated in Dulbecco's Modified Eagle Medium/Nutrient Mixture F-12 (DMEM/F-12) with Glutamax-I (1:1) (Gibco), supplemented with 10% fetal calf serum (FCS) and maintained at 37° C. in a humidified 5% CO2 atmosphere. […] After removal of the culture medium, the cells were treated once with 300 μL of HBSS-B (Hank's balanced salt solution, Biochrom, Berlin, Germany, with addition of 1% bovine serum albumin (BSA)) and left with 200 μL HBSS-B. Next, 25 μL per well of solutions, containing either HBSS-B (control) or the respective ligand in increasing concentration (10^−10-10^−4 M in HBSS-B, were added with subsequent addition of 25 μL of
[^125I]TOC ([^125I]Tyr^3-Octreotide) (1.0 nM) in HBSS-B. Each concentration is investigated in triplicate. After 60 min incubation at room temperature, the experiment was terminated by removal of the assay medium and consecutive rinsing with 300 μL of cold PBS. The media of both steps were combined in one fraction and represent the amount of unbound radioligand.
Afterwards, the cells were lysed with 300 μL of 1 M NaOH and united with the 300 μL 1 M NaOH of the following wash step. Quantification of bound and unbound radioligand was accomplished in a γ-counter.

[1] = Biodistribution of 18F-labeled SST2 ligands in AR42J tumor-bearing mice; type: in vivo; details: female, CD1 nu/nu, mouse, iv, total radioactivity, 1 h post injection
Method: All animal experiments were conducted in accordance with general animal welfare regulations in Germany and the institutional guidelines for the care and use of animals. To establish tumor xenografts, AR42J cells (5×10^6 cells/100 μL) were suspended in Dulbecco modified Eagle medium/Nutrition Mixture F-12 with Glutamax-1 (1:1) and inoculated subcutaneously onto the right shoulder of 8 weeks old, female CD1 nu/nu mice (Charles River, Sulzfeld, Germany). Mice were used for experiments when tumors had grown to a diameter of 5-9 mm (7-15 days after inoculation).
Approximately 0.5-2.0 MBq (0.05-0.25 nmol) of the ^18F-labeled SST2-ligands were injected into the tail vein of AR42J tumor-bearing female CD1 nu/nu mice and sacrificed after 1 h post injection (n=3-5). Selected organs were removed, weighted and measured in a γ-counter.
The Tables 4, 5, and 6 summarize the results of the in vivo mouse experiments. For all biodistribution studies, female CD1 nu/nu mice with AR42J tumor xenografts, were used and sacrificed 1 h post injection.

[2] = AR42J tumor, AR42J tumor, tail vein, read-out: Tumor % ID/g ± SD
[3] = adrenal glands, tail vein, read-out: Adrenal glands % ID/g ± SD
[4] = blood, tail vein, read-out: Blood % ID/g ± SD
[5] = bone, tail vein, read-out: Bone % ID/g ± SD
[6] = heart, tail vein, read-out: Heart % ID/g ± SD
[7] = intestine, tail vein, read-out: Intestine % ID/g ± SD
[8] = kidneys, tail vein, read-out: Kidneys % ID/g ± SD
[9] = liver, tail vein, read-out: Liver % ID/g ± SD
[10] = lung, tail vein, read-out: Lung % ID/g ± SD
[11] = muscle, tail vein, read-out: Muscle % ID/g ± SD
[12] = pancreas, tail vein, read-out: Pancreas % ID/g ± SD
[13] = spleen, tail vein, read-out: Spleen % ID/g ± SD
[14] = stomach, tail vein, read-out: Stomach % ID/g ± SD

T1 sequence (P30874 whole entry, species assumed): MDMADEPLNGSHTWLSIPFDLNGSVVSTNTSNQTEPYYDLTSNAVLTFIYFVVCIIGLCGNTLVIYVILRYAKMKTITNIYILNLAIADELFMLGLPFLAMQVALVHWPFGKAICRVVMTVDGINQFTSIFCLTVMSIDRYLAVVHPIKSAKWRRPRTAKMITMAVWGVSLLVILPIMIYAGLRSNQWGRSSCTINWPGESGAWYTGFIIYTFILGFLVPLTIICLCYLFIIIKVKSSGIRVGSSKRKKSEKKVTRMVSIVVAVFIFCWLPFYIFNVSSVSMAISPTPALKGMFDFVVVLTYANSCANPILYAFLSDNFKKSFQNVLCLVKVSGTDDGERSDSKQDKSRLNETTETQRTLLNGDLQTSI

SMILES	IC50 (SST2)	tissue uptake at 1 h [1, 2]	tissue uptake at 1 h [1, 3]	tissue uptake at 1 h [1, 4]	tissue uptake at 1 h [1, 5]	tissue uptake at 1 h [1, 6]	tissue uptake at 1 h [1, 7]	tissue uptake at 1 h [1, 8]	tissue uptake at 1 h [1, 9]	tissue uptake at 1 h [1, 10]	tissue uptake at 1 h [1, 11]	tissue uptake at 1 h [1, 12]	tissue uptake at 1 h [1, 13]	tissue uptake at 1 h [1, 14]	other results
C[C@@H](O)[C@H](NC(=O)C1CSSCC(NC(=O)C(Cc2ccccc2)NC(=O)CNC(=O)CNC(=O)[C@@H](CC(=O)O)NC(=O)C(CC(=O)O)NC(=O)[C@@H](CNC(=O)CN2CCN(CC(=O)O)CCN(CC(=O)O)CCN(CC(=O)O)CC2)NC(=O)C(CN)NC(=O)c2ccc([Si](F)(C(C)(C)C)C(C)(C)C)cc2)C(=O)N[C@@H](Cc2ccc(O)cc2)C(=O)NC(Cc2c[nH]c3ccccc23)C(=O)N[C@@H](CCCCN)C(=O)N[C@@H]([C@@H](C)O)C(=O)N1)C(=O)O (some centres unmarked) (natGa complex, metal not drawn) [[Ga]19]	11.2 ± 1.04 nM	36.3 ± 4.54 %ID/g	2.56 ± 0.21 %ID/g	2.24 ± 0.3 %ID/g	1.96 ± 0.38 %ID/g	0.88 ± 0.11 %ID/g	1.39 ± 0.24 %ID/g	131 ± 26.7 %ID/g	2.47 ± 0.14 %ID/g	4.84 ± 0.98 %ID/g	0.27 ± 0.04 %ID/g	12.5 ± 1.87 %ID/g	0.93 ± 0.15 %ID/g	7.99 ± 2.08 %ID/g	–
C[C@@H](O)[C@H](NC(=O)C1CSSCC(NC(=O)C(Cc2ccccc2)NC(=O)CNC(=O)CNC(=O)[C@@H](CC(=O)O)NC(=O)C(CC(=O)O)NC(=O)[C@@H](CNC(=O)CN2CCN(CC(=O)O)CCN(CC(=O)O)CCN(CC(=O)O)CC2)NC(=O)C[N+](C)(C)Cc2ccc([Si](F)(C(C)(C)C)C(C)(C)C)cc2)C(=O)N[C@@H](Cc2ccc(O)cc2)C(=O)NC(Cc2c[nH]c3ccccc23)C(=O)N[C@@H](CCCCN)C(=O)N[C@@H]([C@@H](C)O)C(=O)N1)C(=O)O (some centres unmarked) (natGa complex, metal not drawn) [[Ga]24]	9.48 ± 1.96 nM	23.9 ± 4.1 %ID/g	1.52 ± 0.46 %ID/g	0.66 ± 0.32 %ID/g	1.32 ± 0.19 %ID/g	0.34 ± 0.09 %ID/g	1.41 ± 0.19 %ID/g	13.6 ± 3.58 %ID/g	1.05 ± 0.22 %ID/g	2.33 ± 0.1 %ID/g	0.09 ± 0.04 %ID/g	9.28 ± 0.57 %ID/g	0.45 ± 0.05 %ID/g	4.95 ± 0.35 %ID/g	tissue uptake at 1 h ([1]; AR42J tumor, AR42J tumor, Blocking study, read-out: Tumor % ID/g ± SD): 6.1 ± 0.02 %ID/g; tissue uptake at 1 h ([1]; adrenal glands, Blocking study, read-out: Adrenal glands % ID/g ± SD): 0.54 ± 0.05 %ID/g; tissue uptake at 1 h ([1]; blood, Blocking study, read-out: Blood % ID/g ± SD): 1.24 ± 0.61 %ID/g; tissue uptake at 1 h ([1]; bone, Blocking study, read-out: Bone % ID/g ± SD): 0.77 ± 0.07 %ID/g; tissue uptake at 1 h ([1]; heart, Blocking study, read-out: Heart % ID/g ± SD): 0.53 %ID/g; tissue uptake at 1 h ([1]; intestine, Blocking study, read-out: Intestine % ID/g ± SD): 0.71 ± 0.04 %ID/g; tissue uptake at 1 h ([1]; kidneys, Blocking study, read-out: Kidneys % ID/g ± SD): 18.2 ± 2.03 %ID/g; tissue uptake at 1 h ([1]; liver, Blocking study, read-out: Liver % ID/g ± SD): 1.82 ± 0.22 %ID/g; tissue uptake at 1 h ([1]; lung, Blocking study, read-out: Lung % ID/g ± SD): 1.36 ± 0.13 %ID/g; tissue uptake at 1 h ([1]; muscle, Blocking study, read-out: Muscle % ID/g ± SD): 0.21 ± 0.01 %ID/g; tissue uptake at 1 h ([1]; pancreas, Blocking study, read-out: Pancreas % ID/g ± SD): 1.07 ± 0.02 %ID/g; tissue uptake at 1 h ([1]; spleen, Blocking study, read-out: Spleen % ID/g ± SD): 0.33 %ID/g; tissue uptake at 1 h ([1]; stomach, Blocking study, read-out: Stomach % ID/g ± SD): 1.01 ± 0.06 %ID/g
C[C@@H](O)[C@H](NC(=O)C1CSSCC(NC(=O)C(Cc2ccccc2)NC(=O)CNC(=O)CNC(=O)CNC(=O)C(CC(=O)O)NC(=O)[C@@H](CC(=O)O)NC(=O)C(CCCCN)NC(=O)[C@@H](CNC(=O)C[N+](C)(C)Cc2ccc([Si](F)(C(C)(C)C)C(C)(C)C)cc2)NC(=O)CN2CCN(CC(=O)O)CCN(CC(=O)O)CCN(CC(=O)O)CC2)C(=O)N[C@@H](Cc2ccc(O)cc2)C(=O)NC(Cc2c[nH]c3ccccc23)C(=O)N[C@@H](CCCCN)C(=O)N[C@@H]([C@@H](C)O)C(=O)N1)C(=O)O (some centres unmarked) (natGa complex, metal not drawn) [[Ga]45]	4.3 ± 0.06 nM	31.6 ± 4.96 %ID/g	1.54 ± 0.28 %ID/g	0.53 ± 0.23 %ID/g	1.81 ± 0.07 %ID/g	0.28 ± 0.04 %ID/g	1.27 ± 0.13 %ID/g	72.7 ± 7.68 %ID/g	1.28 ± 0.11 %ID/g	3.34 ± 0.49 %ID/g	0.11 ± 0.02 %ID/g	11.8 ± 1.36 %ID/g	0.56 ± 0.1 %ID/g	7.5 ± 0.13 %ID/g	–
C[C@@H](O)[C@H](NC(=O)C1CSSCC(NC(=O)C(Cc2ccccc2)NC(=O)CNC(=O)CNC(=O)CNC(=O)C(CC(=O)O)NC(=O)[C@@H](CC(=O)O)NC(=O)C(CNC(=O)CN2CCN(CC(=O)O)CCN(CC(=O)O)CCN(CC(=O)O)CC2)NC(=O)[C@@H](CN)NC(=O)C[N+](C)(C)Cc2ccc([Si](F)(C(C)(C)C)C(C)(C)C)cc2)C(=O)N[C@@H](Cc2ccc(O)cc2)C(=O)NC(Cc2c[nH]c3ccccc23)C(=O)N[C@@H](CCCCN)C(=O)N[C@@H]([C@@H](C)O)C(=O)N1)C(=O)O (some centres unmarked) (natLu complex, metal not drawn) [[Lu]51]	3.09 ± 0.16 nM	–	–	–	–	–	–	–	–	–	–	–	–	–	–
C[C@@H](O)[C@H](NC(=O)C1CSSCC(NC(=O)C(Cc2ccccc2)NC(=O)CNC(=O)CNC(=O)CNC(=O)C(CC(=O)O)NC(=O)[C@@H](CC(=O)O)NC(=O)C(CNC(=O)CN2CCN(CC(=O)O)CCN(CC(=O)O)CCN(CC(=O)O)CC2)NC(=O)[C@@H](CN)NC(=O)CNC(=O)C[N+](C)(C)Cc2ccc([Si](F)(C(C)(C)C)C(C)(C)C)cc2)C(=O)N[C@@H](Cc2ccc(O)cc2)C(=O)NC(Cc2c[nH]c3ccccc23)C(=O)N[C@@H](CCCCN)C(=O)N[C@@H]([C@@H](C)O)C(=O)N1)C(=O)O (some centres unmarked) (natLu complex, metal not drawn) [[Lu]52]	3.51 ± 0.41 nM	–	–	–	–	–	–	–	–	–	–	–	–	–	–
C[C@@H](O)[C@H](NC(=O)C1CSSCC(NC(=O)C(Cc2ccccc2)NC(=O)CNC(=O)CNC(=O)CNC(=O)C(CC(=O)O)NC(=O)[C@@H](CC(=O)O)NC(=O)C(CNC(=O)CN2CCN(CC(=O)O)CCN(CC(=O)O)CCN(CC(=O)O)CC2)NC(=O)[C@@H](CN)NC(=O)CNC(=O)CNC(=O)C[N+](C)(C)Cc2ccc([Si](F)(C(C)(C)C)C(C)(C)C)cc2)C(=O)N[C@@H](Cc2ccc(O)cc2)C(=O)NC(Cc2c[nH]c3ccccc23)C(=O)N[C@@H](CCCCN)C(=O)N[C@@H]([C@@H](C)O)C(=O)N1)C(=O)O (some centres unmarked) (natLu complex, metal not drawn) [[Lu]53]	3.36 ± 0.27 nM	–	–	–	–	–	–	–	–	–	–	–	–	–	–
CC(O)C(NC(=O)C1CSSCC(NC(=O)C(Cc2ccccc2)NC(=O)CNC(=O)CNC(=O)CNC(=O)[C@@H](CCCN)NC(=O)[C@@H](CCCN)NC(=O)C(CNC(=O)CN2CCN(CC(N)=O)CCN(CC(N)=O)CCN(CC(N)=O)CC2)NC(=O)C[N+](C)(C)Cc2ccc([Si](F)(C(C)(C)C)C(C)(C)C)cc2)C(=O)N[C@@H](Cc2ccc(O)cc2)C(=O)NC(Cc2c[nH]c3ccccc23)C(=O)N[C@@H](CCCCN)C(=O)N[C@@H]([C@@H](C)O)C(=O)N1)C(=O)O (some centres unmarked) [[Pb]61] (X1-[ξDap](DO3AM)[dOrn][dOrn]GGG[ξF][ξC]Y[ξW]KT[ξC][ξT]-OH; disulfide 8-13)	7.96 ± 0.28 nM	–	–	–	–	–	–	–	–	–	–	–	–	–	–
